Source: patent US8367695B2, “Condensed tetrahydroquinoline derivative and use thereof for medical purposes” (Mitsubishi Tanabe Pharma Corporation, priority 2007, dated 2013)

Target: T1, human recombinant progesterone receptor-B (PRB) (Homo sapiens, UniProt P06401)
T1 construct: purchased Invitrogen (Carlsbad, Calif.)
T1 sequence (P06401 1-933): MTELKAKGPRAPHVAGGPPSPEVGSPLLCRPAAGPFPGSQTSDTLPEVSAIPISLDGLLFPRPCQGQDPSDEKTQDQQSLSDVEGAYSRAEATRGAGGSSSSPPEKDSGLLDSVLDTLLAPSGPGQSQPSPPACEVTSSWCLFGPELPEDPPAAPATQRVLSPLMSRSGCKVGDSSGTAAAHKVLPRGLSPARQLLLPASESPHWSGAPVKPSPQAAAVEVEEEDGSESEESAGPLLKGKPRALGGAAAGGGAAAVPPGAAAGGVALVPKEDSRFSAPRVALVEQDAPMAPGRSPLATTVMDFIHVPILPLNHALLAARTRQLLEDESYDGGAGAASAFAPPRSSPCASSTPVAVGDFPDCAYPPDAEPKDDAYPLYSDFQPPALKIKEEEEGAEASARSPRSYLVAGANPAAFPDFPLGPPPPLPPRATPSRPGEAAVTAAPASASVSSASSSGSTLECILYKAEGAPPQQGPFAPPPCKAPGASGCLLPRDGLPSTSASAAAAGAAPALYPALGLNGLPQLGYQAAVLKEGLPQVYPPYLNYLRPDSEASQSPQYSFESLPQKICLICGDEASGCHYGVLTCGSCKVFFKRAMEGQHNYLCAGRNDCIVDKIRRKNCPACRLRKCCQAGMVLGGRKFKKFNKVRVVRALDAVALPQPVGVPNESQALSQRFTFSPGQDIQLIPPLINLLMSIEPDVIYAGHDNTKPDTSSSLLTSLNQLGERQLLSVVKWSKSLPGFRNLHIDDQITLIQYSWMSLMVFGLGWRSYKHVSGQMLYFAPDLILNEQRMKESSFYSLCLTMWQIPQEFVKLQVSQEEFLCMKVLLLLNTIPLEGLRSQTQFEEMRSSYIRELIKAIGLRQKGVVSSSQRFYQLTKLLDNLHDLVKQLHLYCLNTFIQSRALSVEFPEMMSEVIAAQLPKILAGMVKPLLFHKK
Test: Radioactive ligand binding test, PRB cytosol, [3H]-Prog
Conditions: [3H]-Prog about 5 nM, PRB cytosol, 4° C.; Cheng-Prusoff, Kd about 3.5 nM; read-out: PR (Ki: nM)
Excerpt: Radioactive Ligand Binding Test Using Cytosols of Human Glucocorticoids Receptor, Progesterone Receptor and Mineralocorticoid Receptor
The procedures described in Neuroimmunomodulation (1994, 1, p. 66-73) and Invest. Opthalmol. Vis. Sci. (1996, 37, p. 805-813) were modified and used. In brief, cytosol preparations of human recombinant glucocorticoids receptor (GR) and human recombinant progesterone receptor-B (PRB) were purchased from Invitrogen (Carlsbad, Calif.), and a cytosol preparation of human recombinant mineralocorticoid receptor (MR) was prepared by our company (Yokohama, JP). MR cDNA was cloned into a baculovirus expression vector and expressed in insect cell Sf9. The procedures described in J. Biol. Chem. (1991, 266, p. 18072-18081), Proc. Natl. Acad. Sci. USA (1991, 88, p. 10681-10685) and Bac-to-Bac (registered trade mark) Baculovirus Expression Systems technical manual (Invitrogen) were partly modified and used as the procedures for MR gene cloning up to preparation of recombinant receptor cytosol. [^3H]-Dexamethasone (Dex, specific activity 91.0 Ci/mmol) was purchased from GE Healthcare (Buckinghamshire, UK), and [^3H]-progesterone (Prog, specific activity 103 Ci/mmol) and [3H]-aldosterone (Ald, specific activity 87.9 Ci/mmol) were each purchased from PerkinElmer (Boston, Mass.). Polypropylene round-bottomed 96 well plate was obtained from ABgene (Epsom, UK). Dimethyl Sulfoxide (DMSO) and hydrochloric acid were obtained from Kanto Chemical (TOKYO, JP). Trizma Base (Tris), Bovine Serum Albumin (BSA) and Sodium tungstate dihydrate were obtained from Sigma Chemicals (St. Louis, Mo.). Dithiothreitol (DTT) and Dextran 70 were obtained from GE Healthcare (Buckinghamshire, UK). Glycerol was obtained from Junsei Chemical (TOKYO, JP). Norit® “SX-II” was obtained from Wako Pure Chemical Industries, Ltd. (Osaka, JP). MeltiLex™, A, Printed Filtermat A and Sample Bag were obtained from PerkinElmer (Boston, Mass.).
As a buffer for GR binding assay, 25 mM Tris-HCl (4° C., pH 7.4)/1 mM EDTA·2Na/1 mM DTT/0.1% BSA was prepared and used. As buffers for PRB and MR binding assay, 10 mM Tris-HCl (4° C., pH 7.4)/1 mM DTT/0.1% BSA/10% glycerol and 20 mM Tris-HCl (4° C., pH 7.4)/1 mM EDTA·2Na/10% glycerol/20 mM sodium tungstate were respectively prepared and used. As dextran-coated charcoal (DCC) for B/F separation, 0.75% Dextran 70/0.75% Norit® SX-II/10 mM Tris-HCl (4° C., pH 7.4) was prepared and used.
Compound storage solutions (5-20 mM) were prepared using DMSO. The storage solutions were diluted with DMSO to 0.1 mM (for GR) and 0.3 mM (for PRB and MR), and further diluted 20-fold with distilled water to give solutions. Then, the preparations were diluted to each concentration with 5% DMSO solution. 1% DMSO was present at the time of the binding assay.
In the case of PRB binding assay, [^3H]-Prog (about 5 nM), PRB cytosol (concentration of function receptor: about 4 pmol/mL), a test compound and a binding buffer were mixed in a total volume of 50 μL, and the mixture was stood at 4° C. for 30 min or longer. A specific binding was defined to be the difference in the [^3H]-Prog binding between the presence and the absence of 1 μM unlabeled Prog.
After the reaction, 50 μL of DCC was added to each well and blended. Thereafter, the mixture was stood at 4° C. for 10 min. The plate was applied to high-speed cooling centrifuge under the conditions of 4° C., 2000 rpm, 5 min to perform B/F separation. A given amount of the supernatant was recovered, which was spotted on Filtermat A of 96 well format (PerkinElmer) and rapidly dried at a high temperature. Then, solid scintillator MeltiLex A (PerkinElmer) was melted on Filtermat A. The mixture was placed in a Sample Bag (PerkinElmer), and the level of radioactivity was measured by plate reader 1450 Micro Beta TRILUX (PerkinElmer).
Measurement of Inhibition Constant (Ki)

Row | Structure (SMILES) | Ki [nM]
1 | CC1(C)Nc2c(cc(-c3cccc4nccn34)c3occc23)C(C)(C)C1=O [Example 98, 6-(imidazo[1,2-a]pyridin-5-yl)-2,2,4,4-tetramethyl-1,2,3,4-tetrahydro-furo[2,3-h]quinolin-3-one] | 1050
2 | CC1(C)Nc2c(cc(-c3cccc4ncccc34)c3occc23)C(C)(C)C1=O [Example 101, 2,2,4,4-tetramethyl-6-(quinolin-5-yl)-1,2,3,4-tetrahydro-furo [2,3-h]quinolin-3-one] | 1220
3 | CC1(C)Nc2c(cc(-c3ccnc4ncccc34)c3occc23)C(C)(C)C1=O [Example 102, 2,2,4,4-tetramethyl-6-([1,8]naphthyridin-4-yl)-1,2,3,4-tetrahydro-furo[2,3-h]quinolin-3-one] | > 1250
4 | Cc1noc(C)c1-c1cc2c(c3c1C(=O)CC3)NC(C)(C)C(=O)C2(C)C [Example 104, 6-(3,5-dimethylisoxazol-4-yl)-2,2,4,4-tetramethyl-2,3,4,7,8,9-hexahydro-1H-cyclopenta[h]quinoline-3,7-dione] | > 1250

The remaining lines, values ahead:

Row | Ki [nM] | Structure (SMILES)
5 | > 1250 | Cc1onc(CO)c1-c1cc2c(c3ccoc13)NC(C)(C)C(=O)C2(C)C [Example 94, 6-(3-hydroxymethyl-5-methylisoxazol-4-yl)-2,2,4,4-tetramethyl-1,2,3,4-tetrahydro-furo[2,3-h]quinolin-3-one]
6 | > 1250 | CC1(C)Nc2c(cc(-c3cncc4nccn34)c3occc23)C(C)(C)C1=O [Example 100, 6-(imidazo[1,2-a]pyrazin-5-yl)-2,2,4,4-tetramethyl-1,2,3,4-tetrahydro-furo[2,3-h]quinolin-3-one]
